Like-named read-outs stand apart in the source and are kept apart here.
Tests used:
[1] = tested on: PHH spheroids; details: cited from earlier work
[2] = tested on: THLE or HepG2 cells, isolated mitochondria, BSEP; details: cited from earlier work
[3] = tested on: HepaRG spheroids; assay: Combined HCI (HCS) and cellular ATP 3D assay in HepaRG spheroids; details: for AC50 / minimal effective concentration: Homo sapiens; for DILI prediction HepaRG spheroids (HCS-MEC): Microtissue model structural based (HCI), combined HCS and ATP, MEC < 25 × Cmax.tot cut-off
[4] = tested on: hLiMTs; assay: Combined HCI (HCS) and cellular ATP 3D assay in hLiMTs; details: for AC50 / minimal effective concentration: Homo sapiens; for DILI prediction hLiMTs (HCS-MEC): Microtissue model structural based (HCI), combined HCS and ATP, MEC < 25 × Cmax.tot cut-off
Method: 3D spheroid models consisting of either primary human hepatocytes with non-parenchymal cells (hLiMT’s) or HepaRG cells (HepaRG spheroids) were assessed for size (MS), oxidative stress (OS), MMP, mitochondrial mass (MM), GSH and cellular ATP content following drug exposure. Fluorescent images are acquired using the confocal mode of an ArrayScan™ XTI HCI reader (ThermoScientific) following which cellular ATP was measured using 3D CellTiter-Glo (Promega).

[5] = tested on: isolated mouse liver mitochondria; details: In vitro Assay; ref Porceddu 2012; cited from earlier work
[6] = cited from earlier work; for DILI severity category (Chen et al. [2016]): LTKB DILIrank category; for DILI severity category (Chen et al. [2016]) / DILI severity category (Chen 2016): ref Chen et al. 2016; for DILI severity category (Chen 2016): human DILI classification, LTKB DILIrank
[7] = tested on: PHH; details: cited from earlier work; for PHH/100uM, Proctor (2017): IC50 threshold 100 µM
[8] = tested on: hLiMTs; details: cited from earlier work; for hLiMTs/100uM, Proctor (2017): IC50 threshold 100 µM
[9] = tested on: HepG2 cells, primary human hepatocytes; details: In vitro Assay; ref Garside 2014; cited from earlier work
[10] = cited from earlier work; for Assigned DILI category: Chen et al. 2016 or literature alignment, ref Chen et al. 2016
[11] = tested on: human hepatocytes; details: cited from earlier work
[12] = plasma free fraction; cited from earlier work
[13] = tested on: HepG2 C3A spheroid, BSEP, Glu/Gal in HepG2 cells, bioactivation; details: cited from earlier work; for Bayesian Machine Learning DILI prediction, Williams (2019): Bayesian modeling, ref Williams et al. 2019
[14] = read-out: Human plasma Cmax; total plasma Cmax.tot, median of 9 literature references; cited from earlier work
[15] = Modeled in vitro assays (cytotoxicity, mitochondrial dysfunction, BSEP), ref Aleo et al. 2019
[16] = 2D PHH, ATP, ref Proctor et al. 2017
[17] = In vitro Assay, ref Proctor 2017
[18] = hLiMTs, ATP, ref Proctor et al. 2017

SMILES: C1CCC(C(CC2CCCCN2)C2CCCCC2)CC1 (stereo not shown) [perhexiline]
- hLiMTs ATP <20 x Cmax ([1]; In vitro Assay, ref Vorrink 2018): +VE (IC20 < 20 × Cmax.tot cut-off)
- DILI in vitro assay prediction, Vorrink (2018) ([1]; PHH spheroids, ATP, 14 days, IC20 < 20 × Cmax.tot, ref Vorrink et al. 2018): +VE (IC20 < 20 × Cmax.tot cut-off)
- Partition Hybrid HRM Score ([2]; In vitro Assay, ref Aleo 2019): +VE
- Ro2 Hybrid HRM Score ([2]; In vitro Assay, ref Aleo 2019): +VE
- Partition Hybrid HRM Score ≥4, Aleo (2019) [2, 15]: +VE (Partition Hybrid HRM Score ≥4)
- Partition Hybrid HRM Score ≥8, Aleo (2019) [2, 15]: +VE (Partition Hybrid HRM Score ≥8)
- Rule of Two hybrid HRM Score ≥3, Aleo (2019) [2, 15]: +VE (Rule of Two hybrid HRM Score ≥3)
- Rule of Two hybrid HRM Score ≥8, Aleo (2019) [2, 15]: +VE (Rule of Two hybrid HRM Score ≥8)
- HepaRG <25x Avg Cmax ATP ([3]; HepaRG, ATP endpoint, cut-off <25x Avg Cmax): +ve
- HepaRG <100x Avg Cmaxu ATP ([3]; HepaRG, ATP endpoint, cut-off <100x Avg Cmaxu): +ve (<100x Avg Cmaxu)
- HepaRG <25x Avg Cmax HCS ([3]; HepaRG, HCS endpoints, cut-off <25x Avg Cmax): +ve
- HepaRG <100x Avg Cmaxu HCS ([3]; HepaRG, HCS endpoints, cut-off <100x Avg Cmaxu): +ve (<100x Avg Cmaxu)
- HepaRG <25x Avg Cmax All ([3]; HepaRG, all endpoints (ATP and HCS), cut-off <25x Avg Cmax): +ve
- HepaRG Cmax max All ([3]; HepaRG, all endpoints, Cmax max used): +ve
- HepaRG Cmax min All ([3]; HepaRG, all endpoints, Cmax min used): +ve
- HepaRG <10 uM All ([3]; HepaRG, all endpoints, cut-off <10 uM): +ve (<10 uM)
- HepaRG <100x Avg Cmaxu All ([3]; HepaRG, all endpoints, cut-off <100x Avg Cmaxu): +ve (<100x Avg Cmaxu)
- AC50 ([3]; HepaRG, read-out: ATP endpoint AC50): 3.69 µM
- minimal effective concentration ([3]; HepaRG, read-out: ATP endpoint MEC): 1.76 µM
- AC50 ([3]; HepaRG, read-out: HCS endpoint AC50): 6.32 µM
- minimal effective concentration ([3]; HepaRG, read-out: HCS endpoint MEC): 0.693 µM
- DILI prediction HepaRG spheroids (HCS-MEC) [3]: +VE (MEC < 25 × Cmax.tot cut-off)
- AC50 ([4]; read-out: ATP endpoint AC50): 1.69 µM
- minimal effective concentration ([4]; read-out: ATP endpoint MEC): 1.49 µM
- AC50 ([4]; read-out: HCS endpoint AC50): 1.75 µM
- minimal effective concentration ([4]; read-out: HCS endpoint MEC): 0.354 µM
- DILI prediction hLiMTs (HCS-MEC) [4]: +VE (MEC < 25 × Cmax.tot cut-off)
- hLiMTs <25x Avg Cmax ATP ([4]; hLiMTs, ATP endpoint, cut-off <25x Avg Cmax): +ve
- hLiMTs <100x Avg Cmaxu ATP ([4]; hLiMTs, ATP endpoint, cut-off <100x Avg Cmaxu): +ve (<100x Avg Cmaxu)
- hLiMTs <25x Avg Cmax HCS ([4]; hLiMTs, HCS endpoints, cut-off <25x Avg Cmax): +ve
- hLiMTs <100x Avg Cmaxu HCS ([4]; hLiMTs, HCS endpoints, cut-off <100x Avg Cmaxu): +ve (<100x Avg Cmaxu)
- hLiMTs <25x Avg Cmax All ([4]; hLiMTs, all endpoints (ATP and HCS), cut-off <25x Avg Cmax): +ve
- hLiMTs Cmax max All ([4]; hLiMTs, all endpoints, Cmax max used): +ve
- hLiMTs Cmax min All ([4]; hLiMTs, all endpoints, Cmax min used): +ve
- hLiMTs <10 uM All ([4]; hLiMTs, all endpoints, cut-off <10 uM): +ve (<10 uM)
- hLiMTs <100x Avg Cmaxu All ([4]; hLiMTs, all endpoints, cut-off <100x Avg Cmaxu): +ve (<100x Avg Cmaxu)
- in vitro data EC2<=1x Cmax [5]: +VE
- in vitro data EC20<=2uM [5]: +VE
- DILI severity category (Chen et al. [2016]) [6]: Most
- DILI severity category (Chen 2016) [6]: Most
- DILI severity category ([6]; human DILI severity, ref Chen et al.): Most
- DILI +VE (5-8), DILI -VE (-4) ([6]; ref Chen 2016): +VE
- DILI severity category ([6]; ref Chen 2016): vMost-DILI-Concern
- PHH/100uM, Proctor (2017) [7, 16]: +VE (IC50 threshold of 100 µM)
- PHH ATP <100uM [7, 17]: +VE (IC50 threshold of 100 µM)
- hLiMTs ATP <100uM [8, 17]: +VE (IC50 threshold of 100 µM)
- hLiMTs/100uM, Proctor (2017) [8, 18]: +VE (IC50 threshold of 100 µM)
- Cluster 1-6 +VE Assay [9]: +VE
- Assigned DILI category [10]: 3
- In vivo DILI ([10]; […]): +VE
- In vivo DILI ([10]; ref Aleo 2019): +VE
- In vivo DILI ([10]; ref Garside 2014): +VE
- In vivo DILI ([10]; ref Porceddu 2012): +VE
- In vivo DILI ([10]; ref Proctor 2017): +VE
- In vivo DILI ([10]; ref Vorrink 2018): +VE
- In vivo DILI ([10]; ref Williams 2019): +VE
- In vivo DILI ([10]; ref Xu 2008): +VE
- Structural based (HCI) ([11]; In vitro Assay, ref Xu 2008): +VE
- DILI in vitro assay prediction, Xu (2008) ([11]; Structural based (HCI), human hepatocytes, ref Xu et al. 2008): +VE
- fu [12]: 0.100
- Bayesian Machine Learning DILI prediction, Williams (2019) [13]: +VE
- Bayesian Machine Learning ([13]; In vitro Assay, ref Williams 2019): +VE

SMILES: CC(C)[N+](C)(CCOC(=O)C1c2ccccc2Oc2ccccc21)C(C)C [propantheline bromide]
- DILI prediction HepaRG spheroids (HCS-MEC) [3]: -VE
- Cmax [14]: 440 nM
- DILI prediction hLiMTs (HCS-MEC) [4]: -VE
- DILI severity category (Chen et al. [2016]) [6]: No
- DILI severity category (Chen 2016) [6]: No
- PHH/100xCmax, Proctor (2017) ([7]; 2D PHH, ATP, IC50 < 100 × Cmax.tot, ref Proctor et al. 2017): -VE
- PHH/100uM, Proctor (2017) [7, 16]: -VE
- hLiMTs/100xCmax, Proctor (2017) ([8]; hLiMTs, ATP, IC50 < 100 × Cmax.tot, ref Proctor et al. 2017): -VE
- hLiMTs/100uM, Proctor (2017) [8, 18]: -VE
- Assigned DILI category [10]: 1
- Bayesian Machine Learning DILI prediction, Williams (2019) [13]: -VE
